Measured values from US11944624B2, “Peptide and small molecule agonists of EphA and their uses” (CASE WESTERN RESERVE UNIVERSITY, priority 2017, dated 2024).

Tests used:
[1] = target: T1, EphA4 (Homo sapiens, UniProt P54764); experiment: EphA4 activation in HEK 293 cells overexpressing EphA4; assay type: cell-based; conditions: HEK 293 overexpressing EphA4, 60 minutes
T1 construct: expressed in transfected cells; host or cells: HEK 293
Protocol: Cells were plated in 24-well dishes at a density of 100,000 cells/well and grown for 24 hours prior to stimulation with appropriate compounds and ephrins for the given amounts of time. Compounds were prepared in DMSO at 500 times the final concentrations and 0.2% DMSO was used as vehicle control. Following treatment, cells were lysed directly in SDS Gel Loading Buffer and immunoblotted as described previously. […] For immunoprecipitation, 300,000 cells/well were plated in 6-well dishes and lysed in modified RIPA Buffer (20 mM Tris-HCl pH 7.4, 20 mM NaF, 150 mM NaCl, 10% glycerol, 0.1% SDS, 0.5% DCA, 2 mM EDTA, 1% Triton X-100) following treatment. Either 10 μg of ephrin-A1-Fc, or 4 mg of EphA2 mouse monoclonal antibody (Clone D7, Millipore) were used, and mouse IgG was used as a negative control for EphA2 IP. […] For this purpose, HEK 293 cell lines overexpressing EphA1, EphA2, EphA3, EphA4, and EphB3 kinases were utilized.

[2] = tested on: PC-3 cells; experiment: Cell rounding of PC-3 cells; assay type: cell-based, human; parameters: dose or concentration left out as unconfirmed
Excerpt: As we first reported in 2000, EphA2 activation on PC-3 cells by ephrin-A1 induced rapid cell rounding, a phenomenon that is correlated with inhibition of integrin function.

[3] = target: T2, EphA2 (Homo sapiens, UniProt P29317); experiment: EphA2 activation in A172-A2 glioma cells; assay type: cell-based; parameters: expressed in transfected cells
Protocol: (§1) Cells were plated in 24-well dishes at a density of 100,000 cells/well and grown for 24 hours prior to stimulation with appropriate compounds and ephrins for the given amounts of time. Compounds were prepared in DMSO at 500 times the final concentrations and 0.2% DMSO was used as vehicle control. Following treatment, cells were lysed directly in SDS Gel Loading Buffer and immunoblotted as described previously. Immunoprecipitation and immunofluorescence staining was performed as described. For immunoprecipitation, 300,000 cells/well were plated in 6-well dishes and lysed in modified RIPA Buffer (20 mM Tris-HCl pH 7.4, 20 mM NaF, 150 mM NaCl, 10% glycerol, 0.1% SDS, 0.5% DCA, 2 mM EDTA, 1% Triton X-100) following treatment. Either 10 μg of ephrin-A1-Fc, or […] of EphA2 mouse monoclonal antibody (Clone D7, Millipore) were used, and mouse IgG was used as a negative control for EphA2 IP.
Activation of EphA2 receptor by ephrin-A1 ligand inhibits both ERK1/2 and Akt kinase activities in most normal cells and a subset of cancer cells. […] We first tested this by utilizing the A172 glioma cells engineered to overexpress EphA2 receptor (A172-A2).

[4] = target: T2, EphA2; experiment: EphA2 internalization in U373-A2 cells (immunofluorescence); assay type: cell-based; parameters: expressed in transfected cells; conditions: 60 min, DZ 50 μM, ephrin-A1-Fc 1 μg/ml
Protocol: as §1
Similar to other receptor tyrosine kinases, activation of the EphA2 receptor by its ligand, ephrin-A1, results in receptor internalization and eventual degradation. […] This was first performed using the U373 glioma cell line engineered to overexpress EphA2.

[5] = target: T2, EphA2; experiment: EphA2 activation in MDA-231-A2 cells (pEphA/B immunoblot); assay type: cell-based; parameters: expressed in transfected cells; host or cells: MDA-MB-231 (MDA-231-A2 / MDA-MB-231-A2), puromycin selected; EphA2 activation in compound screen: dose or concentration left out as unconfirmed
Protocol: Cells were plated in 24-well dishes at a density of 100,000 cells/well and grown for 24 hours prior to stimulation with appropriate compounds and ephrins for the given amounts of time. Compounds were prepared in DMSO at 500 times the final concentrations and 0.2% DMSO was used as vehicle control. Following treatment, cells were lysed directly in SDS Gel Loading Buffer and immunoblotted as described previously. Immunoprecipitation and immunofluorescence staining was performed as described. For immunoprecipitation, 300,000 cells/well were plated in 6-well dishes and lysed in modified RIPA Buffer (20 mM Tris-HCl pH 7.4, 20 mM NaF, 150 mM NaCl, 10% glycerol, 0.1% SDS, 0.5% DCA, 2 mM EDTA, 1% Triton X-100) following treatment. Either 10 μg of ephrin-A1-Fc, or […] of EphA2 mouse monoclonal antibody (Clone D7, Millipore) were used, and mouse IgG was used as a negative control for EphA2 IP. To identify small molecule agonists for EphA2, we took a structure-based in silico screening approach. […] This notion was confirmed recently by determination of the crystal structure of the EphA2/ephrin-A1 complex (FIG. 1B). The size falls in the range of common drugs, making EphA2 LBD a desirable target for drug discovery. Toward this end, we initiated in silico screening to search for small molecules that interact favorably with the ligand-binding pocket of EphA2 derived from molecular modeling before the crystal structure became available. Multiple conformations for each structure were generated with OMEGA (OpenEye) and each conformation was docked individually using DOCK. Our initial screening of over 750,000 compounds identified a number of small molecules that could potentially interact with the ligand-binding pocket. The commercially available top-scoring compounds were screened for their ability to induce EphA2 activation in MDAMB-231 breast cancer cells. Because MDA-MB-231 cells express endogenous EphA2 as well as other Eph receptors, including EphA1, we overexpressed EphA2 in order to minimize the contribution from other Eph receptors in our analysis. […] Total cell lysates were probed with a previously described antibody that recognizes the activated Eph receptors. […] Originally developed as an antagonist for α1-adrenoreceptor, doxazosin (FIG. 1D) is an FDA-approved drug (CARDURA) for treating hypertension and benign prostate hyperplasia (BPH). To confirm specific EphA2 activation by doxazosin, we analyzed levels of activated Eph receptor in MDA-231-A2 cells following treatment with multiple doses of doxazosin and EphA2 immunoprecipitation.

[6] = tested on: PC3-DAB2IP KD cells; experiment: Haptotactic cell migration toward fibronectin, PC3-DAB2IP KD; assay type: cell-based, human; conditions: 4 hours
Excerpt: One of the well-established functions of Eph receptors is the ligand-dependent repulsive guidance of cell migration. As a ligand-mimicking agonist for EphA2, doxazosin is expected to activate EphA2 on tumor cells and repulse migrating tumor cells in vitro. To test this possibility, we first investigated the effects of doxazosin on integrin-mediated haptotactic cell migration toward fibronectin in a modified Boyden chamber cell migration assay. […] The inhibitory effects were observed when doxazosin was presented either in the bottom chamber, or in both top and bottom chambers in the Transwell assay system. […] Therefore, doxazosin can recapitulate a key function attributed to its native ligands, i.e., negative regulation of cell migration.

[7] = target: endogenous EphA2 (Homo sapiens, UniProt P29317); experiment: Activation of endogenous EphA2 in PC-3 cells (pEphA/B immunoblot); assay type: cell-based; parameters: host or cells: PC-3; conditions: 30 minutes
Protocol: as §1
To determine whether the EphA2 agonist activity of doxazosin is cell-context specific, we evaluated the effects of doxazosin on additional cell types. We first utilized HEK 293 cells overexpressing EphA2 (HEK 293-A2) that we described previously. […] Next we tested PC-3 cells that express high levels of endogenous EphA2 receptor. […] We next evaluated the time-course of activation in both MDA-231-A2 and HEK 293-A2 cells upon treatment with a single 50 μM dose of doxazosin.

[8] = MDA-231-A2 cells, single 50 μM dose

T2 sequence (P29317 24-976): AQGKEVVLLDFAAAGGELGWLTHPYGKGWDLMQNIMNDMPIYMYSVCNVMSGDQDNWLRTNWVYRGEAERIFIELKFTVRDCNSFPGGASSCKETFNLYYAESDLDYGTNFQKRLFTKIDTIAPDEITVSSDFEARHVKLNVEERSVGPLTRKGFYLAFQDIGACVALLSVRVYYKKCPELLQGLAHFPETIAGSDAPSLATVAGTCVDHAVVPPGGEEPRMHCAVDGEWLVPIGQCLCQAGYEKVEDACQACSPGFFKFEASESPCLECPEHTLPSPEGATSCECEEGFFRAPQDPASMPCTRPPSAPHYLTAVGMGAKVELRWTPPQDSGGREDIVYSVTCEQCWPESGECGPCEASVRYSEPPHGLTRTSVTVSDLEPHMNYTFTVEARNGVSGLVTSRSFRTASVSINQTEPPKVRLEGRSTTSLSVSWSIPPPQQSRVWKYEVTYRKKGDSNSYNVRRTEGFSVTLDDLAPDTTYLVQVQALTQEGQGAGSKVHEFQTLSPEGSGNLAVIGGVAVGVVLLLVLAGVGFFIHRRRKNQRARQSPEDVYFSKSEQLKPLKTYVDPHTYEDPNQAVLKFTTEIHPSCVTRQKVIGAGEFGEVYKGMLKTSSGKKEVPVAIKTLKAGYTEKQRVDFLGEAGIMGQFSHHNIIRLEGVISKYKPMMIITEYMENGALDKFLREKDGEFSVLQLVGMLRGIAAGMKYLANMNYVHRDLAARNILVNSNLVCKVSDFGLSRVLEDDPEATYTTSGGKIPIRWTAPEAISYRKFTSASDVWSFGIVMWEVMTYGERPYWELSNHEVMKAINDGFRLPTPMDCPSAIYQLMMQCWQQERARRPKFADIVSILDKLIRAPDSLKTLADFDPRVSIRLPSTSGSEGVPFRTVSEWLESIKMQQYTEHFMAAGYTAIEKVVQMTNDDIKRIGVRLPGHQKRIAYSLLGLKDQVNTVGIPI
T1 sequence (P54764 20-986, species assumed): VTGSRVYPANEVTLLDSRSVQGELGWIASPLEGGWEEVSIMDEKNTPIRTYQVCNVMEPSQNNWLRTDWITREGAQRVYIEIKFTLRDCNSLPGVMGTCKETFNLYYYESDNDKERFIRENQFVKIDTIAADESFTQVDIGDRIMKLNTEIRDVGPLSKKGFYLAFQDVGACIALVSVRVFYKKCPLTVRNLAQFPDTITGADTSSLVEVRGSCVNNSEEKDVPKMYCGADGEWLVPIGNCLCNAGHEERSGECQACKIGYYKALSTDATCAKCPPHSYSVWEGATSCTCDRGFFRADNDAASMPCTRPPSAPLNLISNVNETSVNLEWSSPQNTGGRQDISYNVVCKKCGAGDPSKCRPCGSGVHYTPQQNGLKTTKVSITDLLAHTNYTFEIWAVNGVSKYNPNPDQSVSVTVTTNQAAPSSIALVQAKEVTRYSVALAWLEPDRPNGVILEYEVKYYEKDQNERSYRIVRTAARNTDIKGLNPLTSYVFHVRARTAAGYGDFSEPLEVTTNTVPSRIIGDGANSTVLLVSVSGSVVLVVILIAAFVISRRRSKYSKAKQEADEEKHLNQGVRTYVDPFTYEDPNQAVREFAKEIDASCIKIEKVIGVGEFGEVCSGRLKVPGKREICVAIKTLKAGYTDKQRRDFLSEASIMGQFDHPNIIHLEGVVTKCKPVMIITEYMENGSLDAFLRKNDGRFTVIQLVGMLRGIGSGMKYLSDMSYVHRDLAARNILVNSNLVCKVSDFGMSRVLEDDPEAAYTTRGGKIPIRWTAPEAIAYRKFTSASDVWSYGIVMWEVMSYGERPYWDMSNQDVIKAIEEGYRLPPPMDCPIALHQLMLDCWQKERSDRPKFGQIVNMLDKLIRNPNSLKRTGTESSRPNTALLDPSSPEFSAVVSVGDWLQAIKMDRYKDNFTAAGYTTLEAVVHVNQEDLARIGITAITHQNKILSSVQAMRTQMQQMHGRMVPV
endogenous EphA2, sequence (P29317 24-976): as the sequence (P29317 24-976) above

COc1cc2nc(N3CCN(C(=O)C4COc5ccccc5O4)CC3)nc(N)c2cc1OC (stereo not drawn) [Doxazosin, 2-[4-(2,3-Dihydro-1,4-benzodioxine-2-carbonyl)piperazin-1-yl]-6,7-dimethoxyquinazolin-4-amine]
EphA4 kinase activation [1]: activated both EphA2 and EphA4 kinases following a similar dose-response relationship | cell rounding [2]: caused rounding of PC-3 cells | concentration at which EphA2 activation starts ([3]; A172-A2 cells, 90 minutes): around 25 μM | EphA2 degradation ([3]; A172 cells): degradation of EphA2 following doxazosin treatment | EphA2 internalization [4]: stimulated significant EphA2 internalization | EphA2 activation after phenoxybenzamine pretreatment versus no pretreatment ([5]; MDA-231-A2 cells pretreated with 1 μM phenoxybenzamine): No difference in EphA2 activation | EphA2 degradation ([5]; MDA-231-A2 cells, high doses): degradation of EphA2 following exposure to high doses of doxazosin | earliest time of significant EphA2 activation [5, 8]: 5 min | time of peak EphA2 activation [5, 8]: around 30 min | EphA2 activation in compound screen ([5]; MDA-231-A2 cells, total cell lysates): activated EphA2 to the greatest extent | haptotactic cell migration toward fibronectin [6]: dose-dependent inhibition of cell migration | concentration at which EphA2 activation becomes evident [7]: 50 µM
